Where two headings read alike, the source gives them in different places.
What was measured:
[1] = tested on: AsPC-1 (K-Ras G12D); assay: Potency assay: pERK in AsPC-1 cells; assay type: cell-based; conditions: Homo sapiens, ASPC1, read-out: pERK EC50 (AsPC-1 KRAS G12D)
[2] = tested on: NCI-H358 (K-Ras G12C); assay: CellTiter-Glo cell viability assay, H358; assay type: cell-based; conditions: Homo sapiens, NCI-H358, 120 h
Method in brief: (§1)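 Direct compound addition to plated cells; 5-day exposure; ~30 min RT equilibration; CellTiter-Glo luminescence. Normalization: (sample/avg DMSO)*100; 4-parameter logistic curve fit.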

[3] = tested on: AsPC-1 (K-Ras G12D); assay: CellTiter-Glo cell viability assay, AsPC-1; assay type: cell-based; conditions: Homo sapiens, ASPC1, 120 h
Method in brief: as §1

[4] = biological target: KRAS G13D (Homo sapiens, UniProt P01116+P62937, G13D); assay: Ras-Raf disruption/FRET/MOA assay, KRAS G13D; assay type: biochemical
KRAS G13D, sequence (P01116 1-169 isoform P01116-2 G13D limits assumed): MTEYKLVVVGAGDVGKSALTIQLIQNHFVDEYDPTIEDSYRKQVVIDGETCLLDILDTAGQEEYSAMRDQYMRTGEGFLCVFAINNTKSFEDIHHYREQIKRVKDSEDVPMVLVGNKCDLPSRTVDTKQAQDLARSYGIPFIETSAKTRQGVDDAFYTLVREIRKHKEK
KRAS G13D, sequence (P62937 whole entry, the tested form may be a part): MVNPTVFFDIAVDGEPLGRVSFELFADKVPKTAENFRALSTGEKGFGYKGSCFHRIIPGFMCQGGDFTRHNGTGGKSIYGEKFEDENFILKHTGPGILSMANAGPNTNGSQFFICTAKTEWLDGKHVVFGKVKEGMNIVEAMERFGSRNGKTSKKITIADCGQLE
From the text: (§2) Disruption of B-Raf Ras-Binding Domain (BRAF^RBD) Interaction with K-Ras by Compounds of the Invention (Also Called a FRET Assay or an MOA Assay)
(§3) Note—The following protocol describes a procedure for monitoring disruption of K-Ras G12C (GMP-PNP) binding to BRAF^RBD by a compound of the invention. This protocol may also be executed substituting other Ras proteins or nucleotides, such as K-Ras G12D and K-Ras G13D.
(§4) The purpose of this biochemical assay was to measure the ability of test compounds to facilitate ternary complex formation between a nucleotide-loaded K-Ras isoform and Cyclophilin A; the resulting ternary complex disrupts binding to a BRAF^RBD construct, inhibiting K-Ras signaling through a RAF effector.
(§5) In assay buffer containing 25 mM HEPES pH 7.3, 0.002% Tween20, 0.1% BSA, 100 mM NaCl and 5 mM MgCl2, tagless Cyclophilin A, His6-K-Ras-GMPPNP, and GST-BRAF^RBD were combined in a 384-well assay plate at final concentrations of 25 μM, 12.5 nM, and 50 nM, respectively. Compound was present in plate wells as a 10-point 3-fold dilution series starting at a final concentration of 30 μM. After incubation at 25° C. for 3 hours, a mixture of anti-His Eu-W1024 and anti-GST allophycocyanin was then added to assay sample wells at final concentrations of 10 nM and 50 nM, respectively, and the reaction incubated for an additional 1.5 hours. […] Compounds that facilitate disruption of a K-Ras:RAF complex were identified as those eliciting a decrease in the TR-FRET ratio relative to DMSO control wells.

[5] = biological target: KRAS G12S (Homo sapiens, UniProt P01116+P62937, G12S); assay: Ras-Raf disruption/FRET/MOA assay, KRAS G12S; assay type: biochemical
KRAS G12S, sequence (P01116 1-169 isoform P01116-2 G12S limits assumed): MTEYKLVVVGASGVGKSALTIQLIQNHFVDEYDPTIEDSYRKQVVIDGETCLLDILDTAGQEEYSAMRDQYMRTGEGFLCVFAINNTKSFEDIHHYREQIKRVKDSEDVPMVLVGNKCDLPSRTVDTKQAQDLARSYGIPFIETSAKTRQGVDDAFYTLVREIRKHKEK
KRAS G12S, sequence (P62937 whole entry): as the sequence (P62937 whole entry, the tested form may be a part) above
From the text: as §2, §3, §4, §5

[6] = biological target: KRAS G13C (Homo sapiens, UniProt P01116+P62937, G13C); assay: Ras-Raf disruption/FRET/MOA assay, KRAS G13C; assay type: biochemical
KRAS G13C, sequence (P01116 1-169 isoform P01116-2 G13C limits assumed): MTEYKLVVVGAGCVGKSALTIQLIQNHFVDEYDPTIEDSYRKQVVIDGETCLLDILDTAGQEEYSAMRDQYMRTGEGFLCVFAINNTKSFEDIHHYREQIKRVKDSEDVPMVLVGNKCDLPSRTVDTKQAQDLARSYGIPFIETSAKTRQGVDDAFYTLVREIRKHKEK
KRAS G13C, sequence (P62937 whole entry): as the sequence (P62937 whole entry, the tested form may be a part) above
From the text: as §2, §3, §4, §5

[7] = biological target: KRAS G12V (Homo sapiens, UniProt P01116+P62937, G12V); assay: Ras-Raf disruption/FRET/MOA assay, KRAS G12V; assay type: biochemical
KRAS G12V, sequence (P01116 1-169 isoform P01116-2 G12V limits assumed): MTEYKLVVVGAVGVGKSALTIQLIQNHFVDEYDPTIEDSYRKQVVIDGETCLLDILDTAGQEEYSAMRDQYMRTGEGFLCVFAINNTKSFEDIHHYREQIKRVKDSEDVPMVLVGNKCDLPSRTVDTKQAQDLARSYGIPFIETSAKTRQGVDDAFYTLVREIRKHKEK
KRAS G12V, sequence (P62937 whole entry): as the sequence (P62937 whole entry, the tested form may be a part) above
Method in brief: (§6)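 In this biochemical mechanism-of-action format, 12.5 nM GMPPNP-bound KRAS and 50 nM BRAF^RBD are mixed with 25 μM Cyclophilin A and dilution series of compound. After a 3 h incubation, tag-directed FRET antibodies report remaining KRAS:RAF association.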

[8] = biological target: KRAS G12D (Homo sapiens, UniProt P01116+P62937, G12D); assay: Ras-Raf disruption/FRET/MOA assay, KRAS G12D; assay type: biochemical
KRAS G12D, sequence (P01116 1-169 isoform P01116-2 G12D limits assumed): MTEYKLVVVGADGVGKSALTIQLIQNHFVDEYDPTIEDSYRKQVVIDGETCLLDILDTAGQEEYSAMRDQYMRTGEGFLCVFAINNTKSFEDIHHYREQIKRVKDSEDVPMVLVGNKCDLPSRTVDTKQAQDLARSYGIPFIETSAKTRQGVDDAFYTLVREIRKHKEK
KRAS G12D, sequence (P62937 whole entry): as the sequence (P62937 whole entry, the tested form may be a part) above
Method in brief: as §6

[9] = biological target: KRAS WT (Homo sapiens, UniProt P01116+P62937); assay: Ras-Raf disruption/FRET/MOA assay, KRAS WT; assay type: biochemical
KRAS WT, sequence (P01116 1-169 isoform P01116-2 limits assumed): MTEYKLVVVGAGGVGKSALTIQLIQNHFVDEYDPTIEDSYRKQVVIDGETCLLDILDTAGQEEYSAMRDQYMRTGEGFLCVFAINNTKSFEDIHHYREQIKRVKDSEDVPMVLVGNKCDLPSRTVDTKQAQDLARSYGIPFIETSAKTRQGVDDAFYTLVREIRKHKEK
KRAS WT, sequence (P62937 whole entry): as the sequence (P62937 whole entry, the tested form may be a part) above
From the text: as §2, §3, §4, §5

[10] = biological target: KRAS G12C (Homo sapiens, UniProt P01116+P62937, G12C); assay: Ras-Raf disruption/FRET/MOA assay, KRAS G12C; assay type: biochemical
KRAS G12C, sequence (P01116 1-169 isoform P01116-2 G12C limits assumed): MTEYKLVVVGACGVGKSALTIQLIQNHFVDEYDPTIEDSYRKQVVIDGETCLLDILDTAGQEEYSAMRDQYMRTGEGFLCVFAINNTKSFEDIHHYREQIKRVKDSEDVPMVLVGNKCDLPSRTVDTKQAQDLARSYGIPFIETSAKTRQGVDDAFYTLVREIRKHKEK
KRAS G12C, sequence (P62937 whole entry): as the sequence (P62937 whole entry, the tested form may be a part) above
Method in brief: as §6

[11] = biological target: T1, NRAS G12C (Homo sapiens, UniProt P01111+P62937, G12C); assay: Ras-Raf disruption/FRET/MOA assay, NRAS G12C; assay type: biochemical
T1 construct: His6
T1 sequence (P01111 whole entry G12C): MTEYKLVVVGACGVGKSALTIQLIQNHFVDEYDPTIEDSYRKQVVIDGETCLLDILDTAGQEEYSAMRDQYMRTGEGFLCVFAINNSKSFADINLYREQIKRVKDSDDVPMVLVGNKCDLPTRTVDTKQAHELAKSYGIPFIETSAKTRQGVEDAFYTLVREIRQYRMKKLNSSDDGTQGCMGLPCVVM
T1 sequence (P62937 whole entry): as the sequence (P62937 whole entry, the tested form may be a part) above
From the text: as §2, §3, §4, §5

[12] = read-out: H358 Cell Viability IC50, NCI-H358, K-Ras G12C, 5-day treatment
[13] = read-out: AsPC-1 Cell Viability IC50, AsPC-1, K-Ras G12D, 5-day treatment
[14] = NRAS G12C FRET data IC50, NRAS G12C
[15] = disruption of BRAF RBD binding, with Cyclophilin A, read-out: KRAS G13D FRET IC50
[16] = disruption of BRAF RBD binding, with Cyclophilin A, read-out: KRAS G12S FRET IC50
[17] = disruption of BRAF RBD binding, with Cyclophilin A, read-out: KRAS G13C FRET IC50
[18] = disruption of BRAF RBD binding, with Cyclophilin A, read-out: KRAS G12V FRET IC50
[19] = disruption of BRAF RBD binding, with Cyclophilin A, read-out: KRAS G12D FRET IC50
[20] = disruption of BRAF RBD binding, with Cyclophilin A, read-out: KRAS WT FRET IC50
[21] = disruption of BRAF RBD binding, with Cyclophilin A, read-out: KRAS G12C FRET IC50
[22] = NRAS G12C, read-out: NRAS G12C FRET data IC50
[23] = read-out: AsPC-1 Cell Viability IC50

SMILES | EC50 [1] [nM] | IC50 [2, 12] [nM] | IC50 [3, 13] [nM] | IC50 [4] [nM] | IC50 [5] [nM] | IC50 [6] [nM] | IC50 [7] [nM] | IC50 [8] [nM] | IC50 [9] [nM] | IC50 [10] [nM] | IC50 [11, 14] [nM] | IC50 [4, 15] [nM] | IC50 [5, 16] [nM] | IC50 [6, 17] [nM] | IC50 [7, 18] [nM] | IC50 [8, 19] [nM] | IC50 [9, 20] [nM] | IC50 [10, 21] [nM] | IC50 [11, 22] [nM] | IC50 [3, 23] [nM] | also measured
CCn1c(-c2cnccc2COC)c2c3cc(ccc31)-c1cc(O)cc(c1)C[C@H](NC(=O)[C@H](C(C)C)N(C)C(=O)CN(C)C(=O)[C@@H]1CN1)C(=O)N1CCC[C@H](N1)C(=O)OCC(C)(C)C2 [Compound 8] | < 5000 | 10 to 100 | 1000 to 10000 | 100 to 1000 | 10 to 100 | 10 to 100 | 100 to 1000 | 100 to 1000 | 100 to 1000 | 10 to 100 | 10 to 100 |  |  |  |  |  |  |  |  |  | 
CCn1c(-c2cnccc2COC)c2c3cc(ccc31)-c1cc(O)cc(c1)C[C@H](NC(=O)[C@H](C(C)C)N(C)C(=O)CN(C)C(=O)[C@H]1CN1Cc1ccccc1)C(=O)N1CCC[C@H](N1)C(=O)OCC(C)(C)C2 (stereo partly drawn) [Compound 9] | < 5000 | 10 to 100 | 1000 to 10000 | 100 to 1000 | 100 to 1000 | 100 to 1000 | 100 to 1000 | 1000 to 10000 | 100 to 1000 | 10 to 100 | 10 to 100 |  |  |  |  |  |  |  |  |  | 
CCn1c(-c2cnccc2COC)c2c3cc(ccc31)-c1cc(O)cc(c1)C[C@H](NC(=O)[C@H](C(C)C)N(C)C(=O)CN(C)C(=O)[C@@H]1CN1Cc1ccccc1)C(=O)N1CCC[C@H](N1)C(=O)OCC(C)(C)C2 (stereo partly drawn) [Compound 10] | < 5000 | 10 to 100 | 1000 to 10000 | 1000 to 10000 | 10 to 100 | 100 to 1000 | 100 to 1000 | 1000 to 10000 | 100 to 1000 | 10 to 100 | 10 to 100 |  |  |  |  |  |  |  |  |  | 
CCn1c(-c2cnccc2COC)c2c3cc(ccc31)-c1cc(O)cc(c1)C[C@H](NC(=O)[C@@H](CNC1=NCCO1)C(C)C)C(=O)N1CCC[C@H](N1)C(=O)OCC(C)(C)C2 [Compound 29] |  |  |  |  |  |  |  |  |  |  |  | 1000 to 10000 | 1000 to 10000 | 1000 to 10000 | 1000 to 10000 | 1000 to 10000 | 1000 to 10000 | 1000 to 10000 | 1000 to 10000 |  | IC50 ([2]; NCI-H358, K-Ras G12C, 5-day treatment, read-out: H358 Cell Viability IC50): 1000 to 10000 nM; IC50 ([3]; AsPC-1, K-Ras G12D, 5-day treatment, read-out: AsPC-1 Cell Viability IC50): 1000 to 10000 nM
CCn1c(-c2cnccc2COC)c2c3cc(ccc31)-c1cc(O)cc(c1)C[C@H](NC(=O)[C@H](C(C)C)N(C)C(=O)CN(C)C(=O)[C@H]1CN1C(C)=O)C(=O)N1CCC[C@H](N1)C(=O)OCC(C)(C)C2 [Example 34, (2R)-1-acetyl-N-(2-(((2S)-1-(((6^3S,4S)-1^1-ethyl-2^5-hydroxy-1^2-(4-(methoxymethyl)pyridin-3-yl)-10,10-dimethyl-5,7-dioxo-6^1,6^2,6^3,6^4,6^5,6^6-hexahydro-1^1H-8-oxa-1(5,3)-indola-6(1,3)-pyridazina-2(1,3)-benzenacycloundecaphane-4-yl)amino)-3-methyl-1-oxobutan-2-yl)(methyl)amino)-2-oxoethyl)-N-methylaziridine-2-carboxamide] | < 5000 |  |  |  |  |  |  |  |  |  |  | 100 to 1000 | 10 to 100 | 10 to 100 | 100 to 1000 | 100 to 1000 | 100 to 1000 | 10 to 100 | 10 to 100 | 1000 to 10000 | 
CCn1c(-c2cnccc2COC)c2c3cc(ccc31)-c1cc(O)cc(c1)C[C@H](NC(=O)[C@H](C(C)C)N(C)C(=O)CN(C)C(=O)[C@H]1CN1C(=O)OC)C(=O)N1CCC[C@H](N1)C(=O)OCC(C)(C)C2 [Example 38, methyl (2R)-2-((2-(((2S)-1-(((6^3S,4S)-1^1-ethyl-2^5-hydroxy-1^2-(4-(methoxymethyl)pyridin-3-yl)-10,10-dimethyl-5,7-dioxo-6^1,6^2,6^3,6^4,6^5,6^6-hexahydro-1^1H-8-oxa-1(5,3)-indola-6(1,3)-pyridazina-2(1,3)-benzenacycloundecaphane-4-yl)amino)-3-methyl-1-oxobutan-2-yl)(methyl)amino)-2-oxoethyl)(methyl)carbamoyl)aziridine-1-carboxylate] | < 5000 |  |  |  |  |  |  |  |  |  |  | 100 to 1000 | 10 to 100 | 10 to 100 | 100 to 1000 | 100 to 1000 | 100 to 1000 | 10 to 100 | 10 to 100 | 1000 to 10000 | 

From patent US11739074B2, “Ras inhibitors” (Revolution Medicines, Inc., priority 2019, dated 2023)
